{
  "source": "patent US11311520B2",
  "about": "“Substituted dihydroimidazopyridinediones as MKNK1 and MKNK2 inhibitors” (Bayer Pharma Aktiengesellschaft, priority 2017, dated 2022)",
  "data": [
    {"target": "human full-length MKNK1 (Homo sapiens (Human), UniProt Q9BUB5, T344D)", "sequence (Q9BUB5 other isoform, or with tags, fused parts or gaps T344D)": "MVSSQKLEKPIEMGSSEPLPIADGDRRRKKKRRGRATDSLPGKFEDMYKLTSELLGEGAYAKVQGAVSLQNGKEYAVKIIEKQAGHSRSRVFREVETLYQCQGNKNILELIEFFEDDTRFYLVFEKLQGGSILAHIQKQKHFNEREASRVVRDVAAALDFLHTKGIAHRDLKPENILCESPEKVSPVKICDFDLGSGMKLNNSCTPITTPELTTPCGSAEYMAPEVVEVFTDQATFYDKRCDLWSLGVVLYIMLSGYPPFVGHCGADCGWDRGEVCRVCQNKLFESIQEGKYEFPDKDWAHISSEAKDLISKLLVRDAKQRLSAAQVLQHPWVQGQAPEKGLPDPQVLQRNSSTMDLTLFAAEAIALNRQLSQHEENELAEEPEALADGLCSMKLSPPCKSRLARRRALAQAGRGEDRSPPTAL", "test": "MKNK1 kinase high ATP assay (TR-FRET)", "type": "biochemical", "conditions": "2 mM ATP, 15 min preincubation with enzyme, GST-MKNK1 (T344D)", "in_short": "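GST-tagged full-length human MKNK1 (1-424, T344D, baculovirus-expressed) preincubated 15 min at 22 °C with compound, then reacted 30 min at 22 °C with 2 mM ATP and 0.06 μM biotinylated peptide (final) in HEPES pH 7.5. Phospho-substrate by TR-FRET (665/622 nm ratio), normalised to no-inhibitor and no-enzyme controls.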", "units": {"IC50": "nM"}, "values": [
      {"smiles": "Cc1cc(Nc2ncnc3sc(C(=O)N4C[C@H]5C[C@@H]4CO5)cc23)c(=O)n2c1C(=O)NC21CCC1", "note": "[Example 158, 8′-Methyl-6′-({6-[(1R,4R)-2-oxa-5-azabicyclo[2.2.1]hept-5-ylcarbonyl]thieno[2,3-d]pyrimidin-4-yl}amino)-2′H-spiro[cyclobutane-1,3′-imidazo[1,5-a]pyridine]-1′,5′-dione]", "IC50": 5},
      {"smiles": "Cc1cc(Nc2ncnc3[nH]cnc23)c(=O)n2c1C(=O)NC21CCC1", "note": "[Example 159, 8′-Methyl-6′-(9H-purin-6-ylamino)-2′H-spiro[cyclobutane-1,3′-imidazo[1,5-a]pyridine]-1′,5′-dione]", "IC50": 2.1},
      {"smiles": "Cc1cc(Nc2ncnc3[nH]ncc23)c(=O)n2c1C(=O)NC21CCC1", "note": "[Example 160, 8′-Methyl-6′-(1H-pyrazolo[3,4-d]pyrimidin-4-ylamino)-2′H-spiro[cyclobutane-1,3′-imidazo[1,5-a]pyridine]-1′,5′-dione]", "IC50": 2.9},
      {"smiles": "Cc1cc(Nc2ncnc3c2CN(C(=O)OC(C)(C)C)C3)c(=O)n2c1C(=O)NC21CCC1", "note": "[Example 162, tert-Butyl 4-[(8′-methyl-1′,5′-dioxo-1′,5′-dihydro-2′H-spiro[cyclobutane-1,3′-imidazo[1,5-a]pyridin]-6′-yl)amino]-5,7-dihydro-6H-pyrrolo[3,4-d]pyrimidine-6-carboxylate]", "IC50": 21.7},
      {"smiles": "Cc1cc(Nc2ncnc3c2CN(C(=O)OC(C)(C)C)C3)c(=O)n2c1C(=O)NC2(C)C", "note": "[Example 163, tert-Butyl 4-[(3,3,8-trimethyl-1,5-dioxo-1,2,3,5-tetrahydroimidazo[1,5-a]pyridin-6-yl)amino]-5,7-dihydro-6H-pyrrolo[3,4-d]pyrimidine-6-carboxylate]", "IC50": 16.8},
      {"smiles": "Cc1cc(Nc2ncnc3scnc23)c(=O)n2c1C(=O)NC2(C)C", "note": "[Example 164, 3,3,8-Trimethyl-6-([1,3]thiazolo[5,4-d]pyrimidin-7-ylamino)-2,3-dihydroimidazo[1,5-a]pyridine-1,5-dione]", "IC50": 383},
      {"smiles": "Cc1cc(Nc2ncnc3c2CNC3)c(=O)n2c1C(=O)NC2(C)C", "note": "[Example 165, 6-(6,7-Dihydro-5H-pyrrolo[3,4-d]pyrimidin-4-ylamino)-3,3,8-trimethyl-2,3-dihydroimidazo[1,5-a]pyridine-1,5-dione]", "IC50": 168},
      {"smiles": "Cc1cc(Nc2ncnc3ccc(Cl)cc23)c(=O)n2c1C(=O)NC2(C)C", "note": "[Example 166, 6-[(6-Chloroquinazolin-4-yl)amino]-3,3,8-trimethyl-2,3-dihydroimidazo[1,5-a]pyridine-1,5-dione]", "IC50": 45.9},
      {"smiles": "Cc1cc(Nc2ncnc3ccc(Cl)cc23)c(=O)n2c1C(=O)NC21CCC1", "note": "[Example 167, 6′-[(6-Chloroquinazolin-4-yl)amino]-8′-methyl-2′H-spiro[cyclobutane-1,3′-imidazo[1,5-a]pyridine]-1′,5′-dione]", "IC50": 5.7},
      {"smiles": "Cc1cc(Nc2ncnc3c2CNC3)c(=O)n2c1C(=O)NC21CCC1", "note": "[Example 168, 6′-(6,7-Dihydro-5H-pyrrolo[3,4-d]pyrimidin-4-ylamino)-8′-methyl-2′H-spiro[cyclobutane-1,3′-imidazo[1,5-a]pyridine]-1′,5′-dione]", "IC50": 49.5},
      {"smiles": "Cc1cc(Nc2ncnc3sc(C(=O)O)c(C)c23)c(=O)n2c1C(=O)NC21CCC1", "note": "[Example 169]", "IC50": 15.7},
      {"smiles": "Cc1cc(Nc2ncnc3cccc(C)c23)c(=O)n2c1C(=O)NC21CCC1", "note": "[Example 170, 8′-methyl-6′-[(5-methylquinazolin-4-yl)amino]-2′H-spiro[cyclobutane-1,3′-imidazo[1,5-a]pyridine]-1′,5′-dione]", "IC50": 5.3},
      {"smiles": "Cc1cc(Nc2ncnc3ccc(F)cc23)c(=O)n2c1C(=O)NC21CCC1", "note": "[Example 171, 6′-[(6-fluoroquinazolin-4-yl)amino]-8′-methyl-2′H-spiro[cyclobutane-1,3′-imidazo[1,5-a]pyridine]-1′,5′-dione]", "IC50": 6},
      {"smiles": "Cc1cc(Nc2ncnc3ccccc23)c(=O)n2c1C(=O)NC21CCC1", "note": "[Example 172, 8′-methyl-6′-[(quinazolin-4-yl)amino]-2′H-spiro[cyclobutane-1,3′-imidazo[1,5-a]pyridine]-1′,5′-dione]", "IC50": 12.1},
      {"smiles": "Cc1cc(Nc2ncnc3scnc23)c(=O)n2c1C(=O)NC21CSC1", "note": "[Example 173, 8-methyl-6-[([1,3]thiazolo[5,4-d]pyrimidin-7-yl)amino]-2H-spiro[imidazo[1,5-a]pyridine-3,3′-thietane]-1,5-dione]", "IC50": 5.8},
      {"smiles": "Cc1cc(Nc2ncnc3cccc(C)c23)c(=O)n2c1C(=O)NC21CSC1", "note": "[Example 174, 8-methyl-6-[(5-methylquinazolin-4-yl)amino]-2H-spiro[imidazo[1,5-a]pyridine-3,3′-thietane]-1,5-dione]", "IC50": 12.8},
      {"smiles": "Cc1cc(Nc2ncnc3ccc(Cl)cc23)c(=O)n2c1C(=O)NC21CSC1", "note": "[Example 175, 6-[(6-chloroquinazolin-4-yl)amino]-8-methyl-2H-spiro[imidazo[1,5-a]pyridine-3,3′-thietane]-1,5-dione]", "IC50": 14.4},
      {"smiles": "Cc1cc(Nc2ncnc3ccc(F)cc23)c(=O)n2c1C(=O)NC21CSC1", "note": "[Example 176, 6-[(6-fluoroquinazolin-4-yl)amino]-8-methyl-2H-spiro[imidazo[1,5-a]pyridine-3,3′-thietane]-1,5-dione]", "IC50": 19},
      {"smiles": "Cc1cc(Nc2ncnc3sccc23)c(=O)n2c1C(=O)NC21CSC1", "note": "[Example 177, 8-methyl-6-[(thieno[2,3-d]pyrimidin-4-yl)amino]-2H-spiro[imidazo[1,5-a]pyridine-3,3′-thietane]-1,5-dione]", "IC50": 4.3},
      {"smiles": "Cc1cc(Nc2ncnc3[nH]ccc23)c(=O)n2c1C(=O)NC21CSC1", "note": "[Example 178, 8-methyl-6-[(7H-pyrrolo[2,3-d]pyrimidin-4-yl)amino]-2H-spiro[imidazo[1,5-a]pyridine-3,3′-thietane]-1,5-dione]", "IC50": 1.1},
      {"smiles": "Cc1cc(Nc2ncnc3cccc(C)c23)c(=O)n2c1C(=O)NC21CS(=O)(=O)C1", "note": "[Example 179, 8-methyl-6-[(5-methylquinazolin-4-yl)amino]-2H-spiro[imidazo[1,5-a]pyridine-3,3′-thietane]-1,5-dione 1′,1′-dioxide]", "IC50": 124},
      {"smiles": "Cc1cc(Nc2ncnc3ccc(Cl)cc23)c(=O)n2c1C(=O)NC21CS(=O)(=O)C1", "note": "[Example 180, 6-[(6-chloroquinazolin-4-yl)amino]-8-methyl-2H-spiro[imidazo[1,5-a]pyridine-3,3′-thietane]-1,5-dione 1′,1′-dioxide]", "IC50": 104},
      {"smiles": "Cc1cc(Nc2ncnc3cc(Cl)ccc23)c(=O)n2c1C(=O)NC21CS(=O)(=O)C1", "note": "[Example 181, 6-[(7-chloroquinazolin-4-yl)amino]-8-methyl-2H-spiro[imidazo[1,5-a]pyridine-3,3′-thietane]-1,5-dione 1′,1′-dioxide]", "IC50": 104},
      {"smiles": "Cc1cc(Nc2ncnc3ccccc23)c(=O)n2c1C(=O)NC21CS(=O)(=O)C1", "note": "[Example 182, 8-methyl-6-(quinazolin-4-ylamino)-2H-spiro[imidazo[1,5-a]pyridine-3,3′-thietane]-1,5-dione 1′,1′-dioxide]", "IC50": 261},
      {"smiles": "Cc1cc(Nc2ncnc3cccc(C)c23)c(=O)n2c1C(=O)NC21CCCC1", "note": "[Example 183, 8′-methyl-6′-[(5-methylquinazolin-4-yl)amino]-2′H-spiro[cyclopentane-1,3′-imidazo[1,5-a]pyridine]-1′,5′-dione]", "IC50": 13},
      {"smiles": "Cc1cc(Nc2ncnc3ccc(C(F)(F)F)cc23)c(=O)n2c1C(=O)NC21CCCC1", "note": "[Example 184, 8′-methyl-6′-{[6-(trifluoromethyl)quinazolin-4-yl]amino}-2′H-spiro[cyclopentane-1,3′-imidazo[1,5-a]pyridine]-1′,5′-dione]", "IC50": 34},
      {"smiles": "Cc1cc(Nc2ncnc3ccc(F)cc23)c(=O)n2c1C(=O)NC21CCCC1", "note": "[Example 185, 6′-[(6-fluoroquinazolin-4-yl)amino]-8′-methyl-2′H-spiro[cyclopentane-1,3′-imidazo[1,5-a]pyridine]-1′,5′-dione]", "IC50": 7.9},
      {"smiles": "Cc1cc(Nc2ncnc3cc(Cl)ccc23)c(=O)n2c1C(=O)NC21CCCC1", "note": "[Example 186, 6′-[(7-chloroquinazolin-4-yl)amino]-8′-methyl-2′H-spiro[cyclopentane-1,3′-imidazo[1,5-a]pyridine]-1′,5′-dione]", "IC50": 5.5},
      {"smiles": "Cc1cc(Nc2ncnc3ccccc23)c(=O)n2c1C(=O)NC21CCCC1", "note": "[Example 187, 8′-methyl-6′-[(quinazolin-4-yl)amino]-2′H-spiro[cyclopentane-1,3′-imidazo[1,5-a]pyridine]-1′,5′-dione]", "IC50": 7.3},
      {"smiles": "Cc1cc(Nc2ncnc3cccc(C)c23)c(=O)n2c1C(=O)N[C@]21CC[C@@](O)(C(F)(F)F)CC1", "note": "[Example 188, (cis)-4-hydroxy-8′-methyl-6′-[(5-methylquinazolin-4-yl)amino]-4-(trifluoromethyl)-2′H-spiro[cyclohexane-1,3′-imidazo[1,5-a]pyridine]-1′,5′-dione]", "IC50": 47},
      {"smiles": "Cc1cc(Nc2ncnc3ccc(F)cc23)c(=O)n2c1C(=O)N[C@]21CC[C@@](O)(C(F)(F)F)CC1", "note": "[Example 189, (cis)-6′-[(6-fluoroquinazolin-4-yl)amino]-4-hydroxy-8′-methyl-4-(trifluoromethyl)-2′H-spiro[cyclohexane-1,3′-imidazo[1,5-a]pyridine]-1′,5′-dione]", "IC50": 274},
      {"smiles": "Cc1cc(Nc2ncnc(N)n2)c(=O)n2c1C(=O)N[C@]21CC[C@@](O)(C(F)(F)F)CC1", "note": "[Example 190, (cis)-6′-[(4-amino-1,3,5-triazin-2-yl)amino]-4-hydroxy-8′-methyl-4-(trifluoromethyl)-2′H-spiro[cyclohexane-1,3′-imidazo[1,5-a]pyridine]-1′,5′-dione]", "IC50": 31.4},
      {"smiles": "Cc1cc(Nc2ncnc3cccc(C)c23)c(=O)n2c1C(=O)N[C@]21CC[C@@](O)(C(F)(F)C(F)(F)F)CC1", "note": "[Example 191, (cis)-4-hydroxy-8′-methyl-6′-[(5-methylquinazolin-4-yl)amino]-4-(pentafluoroethyl)-2′H-spiro[cyclohexane-1,3′-imidazo[1,5-a]pyridine]-1′,5′-dione]", "IC50": 67.8}
    ]}
  ]
}
